Experiments:
[1] = tested on: HCoV-NL63; assay: HCoV-NL63 cytopathic effects; assay type: cell-based; details: Human coronavirus NL63, LLC-MK2, 120 h, read-out: Anti-HCoV-NL63 (EC50/μM)
[2] = in vitro; details: human
[3] = tested on: HCoV-OC43; assay: HCoV-OC43 cytopathic effects; assay type: cell-based; details: Betacoronavirus 1, OC43, HCT-8, 120 h, read-out: Anti-HCoV-OC43 (EC50/μM)

CCC(CC)COC(=O)[C@H](C)N[P@](=O)(OC[C@H]1O[C@@](C#N)(c2ccc3c(N)ncnn23)[C@H](O)[C@@H]1O)Oc1ccccc1 [Remdesivir]
EC50 [1]: 2.89 µM | CC50 [2]: > 100 µM | EC50 [3]: 0.82 µM

Source: paper PMC8600920 (Antiviral Research, 2021)
